Results published in US9809583B2 (priority 2014, dated 2017).

Tests used:
androgen receptor (hAR) [1] = target: T1, androgen receptor (hAR) (Homo sapiens (Human), UniProt P10275); test: biochemical; type: binding; details: 1 nM [3H]MIB, hAR-transfected COS-7 cells, 2 hours; read-out: IC50 [nM] (mean ± SE)
Procedure: In order to examine binding ability of the agonists of the present invention to androgen receptors, the following in-vitro experiment was performed. African green monkey kidney fibroblast-like cell line, COS-7 (ATCC, #CRL-1651) was seeded in a 48-well plate at a density of 2.5×10^4 cells/well, and cultured for 24 hours. Then, a plasmid hAR-mixed medium was added thereto. […] Thereafter, the cells were lysed and the amount of [3H]MIB bound to the intracellular androgen receptors was measured using a radiation dosimeter.

androgen receptor (hAR) [2] = target: T1, androgen receptor (hAR); test: Test of transcriptional activity (hAR / ARE-Luc dual-luciferase assay in CHO cells); type: cell-based; details: EC50 [nM] (mean ± SE), CHO cells with hAR and ARE-Luc, 24 hours; 10 nM DHT = 100%
How it was run: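 Compound at 0.1˜10,000 nM applied for 24 h to CHO cells carrying transfected human AR and an ARE-driven luciferase reporter. Cells were grown 24 h before transfection; readout was dual-luciferase luminescence.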

castrated male rats = test: Efficacy test in castrated male rat (Hershberger assay); type: in vivo, SD (Sprague-Dawley) rat; details: castrated male SD rats, oral once a day for 14 days
Procedure: SD (Sprague-Dawley) male rats (7-week-old) were castrated under ketamine/xylazine anesthesia, and 5 rats were randomly assigned to one group. From the next day, the agonists were dissolved in a vehicle solution and orally administered at a dose of 5 ml per kg once a day for 14 days. As the vehicle, DMSO, Co-solvent, and DW were prepared at a ratio of 4:80:16 (v/v/v), and Co-solvent was prepared by mixing PEG400, Ethanol, and Tween 80 at a ratio of 85:10:5 (v/v/v). 24 hours after last administration of the drug, their body weight was measured and killed. Thereafter, levator ani muscle, ventral prostate, and seminal vesicles were removed and weighed (Hershberger assay). The following Table 6 represents the result of the efficacy test in castrated male rats.

T1 sequence (P10275 whole entry): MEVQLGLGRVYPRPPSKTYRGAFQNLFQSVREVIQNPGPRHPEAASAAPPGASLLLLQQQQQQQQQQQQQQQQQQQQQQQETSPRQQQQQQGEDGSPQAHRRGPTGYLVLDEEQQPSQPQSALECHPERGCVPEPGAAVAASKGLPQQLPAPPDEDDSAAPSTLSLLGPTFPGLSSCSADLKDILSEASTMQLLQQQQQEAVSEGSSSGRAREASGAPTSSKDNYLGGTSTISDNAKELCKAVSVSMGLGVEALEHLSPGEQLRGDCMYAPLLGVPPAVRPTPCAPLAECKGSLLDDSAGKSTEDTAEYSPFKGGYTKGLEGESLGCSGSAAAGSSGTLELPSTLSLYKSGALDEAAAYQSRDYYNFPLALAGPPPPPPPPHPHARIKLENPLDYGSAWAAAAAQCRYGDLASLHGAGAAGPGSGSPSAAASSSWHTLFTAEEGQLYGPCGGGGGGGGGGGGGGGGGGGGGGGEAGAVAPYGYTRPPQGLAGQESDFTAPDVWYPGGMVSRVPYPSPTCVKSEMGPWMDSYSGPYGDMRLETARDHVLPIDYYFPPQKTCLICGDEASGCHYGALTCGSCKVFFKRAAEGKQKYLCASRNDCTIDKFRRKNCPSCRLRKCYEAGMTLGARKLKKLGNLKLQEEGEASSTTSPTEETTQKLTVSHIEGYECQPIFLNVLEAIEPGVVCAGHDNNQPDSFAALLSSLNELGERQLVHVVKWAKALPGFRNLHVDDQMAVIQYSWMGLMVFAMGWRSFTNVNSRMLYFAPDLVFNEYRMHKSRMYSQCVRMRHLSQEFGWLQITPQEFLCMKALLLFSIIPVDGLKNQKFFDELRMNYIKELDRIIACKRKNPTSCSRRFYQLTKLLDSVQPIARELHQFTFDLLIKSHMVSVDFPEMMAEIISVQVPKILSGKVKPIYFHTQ

SMILES: N#Cc1ccc(OC[C@@H]2CN(c3ccc(C#N)c(C(F)(F)F)c3)[C@@H](C(F)(F)F)O2)cc1 [Example 19, 4-((2R,5S)-5-((4-cyanophenoxy)methyl)-2-(trifluoromethyl)oxazolidin-3-yl)-2-(trifluoromethyl)benzonitrile]
- IC50 (androgen receptor (hAR) [1]): 7.6 nM
- EC50 (androgen receptor (hAR) [2]): 1 nM
- levator ani muscle weight % relative to intact control group (castrated male rats; 0.3 mg/kg): 7.2 ± 4.3%
- seminal vesicles weight % relative to intact control group (castrated male rats; 0.3 mg/kg): 4.8 ± 1.3%
- ventral prostate weight % relative to intact control group (castrated male rats; 0.3 mg/kg): 1.7 ± 0.6%
- levator ani muscle weight % relative to intact control group (castrated male rats; 1 mg/kg): 45.9 ± 5.8%
- seminal vesicles weight % relative to intact control group (castrated male rats; 1 mg/kg): 78.2 ± .1%
- ventral prostate weight % relative to intact control group (castrated male rats; 1 mg/kg): 10.2 ± 3.9%
- levator ani muscle weight % relative to intact control group (castrated male rats; 3 mg/kg): 70.6 ± 6.6%
- seminal vesicles weight % relative to intact control group (castrated male rats; 3 mg/kg): 17.3 ± 5.6%
- ventral prostate weight % relative to intact control group (castrated male rats; 3 mg/kg): 11.4 ± 3.0%
- levator ani muscle weight % relative to intact control group (castrated male rats; 10 mg/kg): 63.9 ± 4.8%
- seminal vesicles weight % relative to intact control group (castrated male rats; 10 mg/kg): 22.9 ± 4.3%
- ventral prostate weight % relative to intact control group (castrated male rats; 10 mg/kg): 14.4 ± 2.7%
- levator ani muscle weight % relative to intact control group (castrated male rats; 30 mg/kg): 78.4 ± 11.0%
- seminal vesicles weight % relative to intact control group (castrated male rats; 30 mg/kg): 33.4 ± 2.0%
- ventral prostate weight % relative to intact control group (castrated male rats; 30 mg/kg): 18.3 ± 4.5%
- levator ani muscle weight % relative to intact control group (castrated male rats; 100 mg/kg): 68.3 ± 7.3%
- seminal vesicles weight % relative to intact control group (castrated male rats; 100 mg/kg): 36.4 ± 9.2%
- ventral prostate weight % relative to intact control group (castrated male rats; 100 mg/kg): 18.0 ± 5.2%

SMILES: CC(=O)Nc1ccc(OC[C@@H]2CN(c3ccc(C#N)c(C(F)(F)F)c3)[C@@H](C(F)(F)F)O2)cc1 [Example 25, N-(4-(((2R,5S)-3-(4-cyano-3-(trifluoromethyl)phenyl)-2-(trifluoromethyl)oxazolidin-5-yl)methoxy)phenyl)acetamide]
- IC50 (androgen receptor (hAR) [1]): 8.5 nM
- EC50 (androgen receptor (hAR) [2]): 0.7 nM
- levator ani muscle weight % relative to intact control group (castrated male rats; 0.01 mg/kg): 6.7 ± 1.6%
- seminal vesicles weight % relative to intact control group (castrated male rats; 0.01 mg/kg): 0.9 ± 0.2%
- ventral prostate weight % relative to intact control group (castrated male rats; 0.01 mg/kg): 1.8 ± 0.3%
- levator ani muscle weight % relative to intact control group (castrated male rats; 0.03 mg/kg): 8.4 ± 1.5%
- seminal vesicles weight % relative to intact control group (castrated male rats; 0.03 mg/kg): 0.7 ± 0.2%
- ventral prostate weight % relative to intact control group (castrated male rats; 0.03 mg/kg): 1.0 ± 0.4%
- levator ani muscle weight % relative to intact control group (castrated male rats; 0.1 mg/kg): 26.5 ± 5.8%
- seminal vesicles weight % relative to intact control group (castrated male rats; 0.1 mg/kg): 0.9 ± 0.2%
- ventral prostate weight % relative to intact control group (castrated male rats; 0.1 mg/kg): 3.2 ± 0.9%
- levator ani muscle weight % relative to intact control group (castrated male rats; 0.3 mg/kg): 38.5 ± 4.8%
- seminal vesicles weight % relative to intact control group (castrated male rats; 0.3 mg/kg): 3.4 ± 0.4%
- ventral prostate weight % relative to intact control group (castrated male rats; 0.3 mg/kg): 4.8 ± 1.6%
- levator ani muscle weight % relative to intact control group (castrated male rats; 1 mg/kg): 61.1 ± 6.3%
- seminal vesicles weight % relative to intact control group (castrated male rats; 1 mg/kg): 4.7 ± 1.2%
- ventral prostate weight % relative to intact control group (castrated male rats; 1 mg/kg): 10.9 ± 3.4%
- levator ani muscle weight % relative to intact control group (castrated male rats; 3 mg/kg): 79.8 ± 6.7%
- seminal vesicles weight % relative to intact control group (castrated male rats; 3 mg/kg): 8.7 ± 1.6%
- ventral prostate weight % relative to intact control group (castrated male rats; 3 mg/kg): 12.7 ± 2.5%
